Data taken from patent US20260355144A1, “METAP2 INHIBITORS FOR THE TREATMENT OF PULMONARY FIBROSIS” (SynDevRx , Inc., priority 2022, published 2026).

Columns and labels:
Type in all cases: in vivo, C57BL/6 mice
[1] = test system: aged, male, bleomycin-treated mice; test: Respiratory function by whole-body plethysmography (PenH, respiratory rate), Example 1; details: FIG. 3, day 20 post BLM; SDX-7320 8 mg/kg SC Q4D; nintedanib 50 mg/kg PO QD; pirfenidone 100 mg/kg PO BID
Procedure: Animals: Aged, male C57BL/6 mice from Jackson Laboratories, 72 weeks old at the time of randomization were used in this study.
Mice in treatment groups 1 and 2 were administered a vehicle control subcutaneously once every 4 days (Q4D) from day 7 to day 21. […]
Respiratory Function: Respiratory function of the mice were measured using plethysmography. […] After the acclimatization period, the baseline functional respiratory parameters were measured by the whole-body plethysmograph (VivoFlow by SCIREQ) on Day 6 (before treatment introduction and process to the randomization), Days 13 and 20, post-BLM administration. […] The functional respiratory parameters analyzed include respiratory rate and PenH (pulmonary congestion index). […]

[2] = test system: aged, male, bleomycin-treated mice; test: Wet lung weight (edema), Example 1; details: FIG. 6, day 21, compared to BLM-treated mice; SDX-7320 8 mg/kg SC Q4D; nintedanib 50 mg/kg PO QD; pirfenidone 100 mg/kg PO BID
Procedure: (§1) Treatment: seven groups of mice were treated as put forth in Table A. Mice in groups 2-7 were challenged with bleomycin solution on Day 0 of the study by a single oropharyngeal installation of bleomycin solution such that the mice were given 1.5 U/kg based on the average body weight of the animals. On day 6 of the study, all mice were randomized based on body weight loss plus their PenH value (see below) as measured on Day 6.
(§2) Mice in treatment groups 1 and 2 were administered a vehicle control subcutaneously once every 4 days (Q4D) from day 7 to day 21. Mice in treatment group 3 were administered SDX-7320 subcutaneously Q4D from day 7 to day 21 at a dose of 8 mg/kg (i.e., 4 doses). Mice in treatment group 4 were administered pirfenidone orally (PO) twice a day (BID) from day 7 to day 21 at a dose of 100 mg/kg. Mice in treatment group 5 were administered nintedanib orally (PO) once a day (QD) from day 7 to day 21 at a dose of 50 mg/kg. […]
Lung weight: Lungs were harvested, and the wet lung weights (signifying edema) were recorded.
Statistical Analysis: All parameters were analyzed in the same manner and results were expressed as means±SEM with Graph Pad Prism Software version 8.0 (San Diego, CA, USA). […]

[3] = test system: aged, male, bleomycin-treated mice; test: Automated histopathological analysis of lung samples, Example 1
Procedure: as §1
as §2, with “mg/kg.” for “mg/kg. Mice in treatment group 5 were administered nintedanib orally (PO) once a day (QD) from day 7 to day 21 at a dose of 50 mg/kg.”
Histopathological Analysis: Automatic quantification of morphological features of pulmonary fibrosis were performed using MorphoQuant™ (Biocellvia, France), an automated AI-based digital pathology software for quantification, from the digitalized images (scans) of PSR-stained or antibody labeled lung sections. MorphoQuant™ uses principles of morphometric analysis to detect and quantify specific lung disease features from histological slides (Gilhodes et al. 2017; Michaudel, Fauconnier, et al. 2018). […]

| Structure (SMILES) | pulmonary congestion (PenH) [1] | lung weight (wet) [2] | deposition of collagen in lung tissue ([3]; FIG. 22 and Table C, COL1A1, following exposure to bleomycin, SDX-7320 8 mg/kg SC Q4D, nintedanib 50 mg/kg PO QD) | COL1A1 area (%) ([3]; Table C/FIG. 22, aged male mice, bleomycin 1.5 U/kg oropharyngeal, treatment day 7 to 21, SDX 8 mg/kg SC Q4D, Nin 50 mg/kg PO QD, ab270993 antibody labeled) |
| --- | --- | --- | --- | --- |
| COC(=O)c1ccc2c(c1)NC(=O)/C2=C(\Nc1ccc(N(C)C(=O)CN2CCN(C)CC2)cc1)c1ccccc1 [nintedanib, Methyl (Z)-3-[[[4-[N-methyl-2-(4-methylpiperazin-1-yl)acetamido]phenyl]amino](phenyl)methylene]-2-oxoindoline-6-carboxylate] | increased the pulmonary congestion | did not significantly reduce lung weight | almost no activity | 1.387 ± 1.638 |
| Cc1ccc(=O)n(-c2ccccc2)c1 [pirfenidone, 5-Methyl-1-phenyl-1H-pyridin-2-one] | – | did not significantly reduce lung weight | – | – |
